Experimental data: patent US5358936A, “Anionic furanose derivatives, methods of making and using the same” (Gordon; Paul, priority 1991, dated 1994)
“And” between values parts separate entries of the source, which are not always exact repeats. Identical values can stand only once. “Also recorded” adds a separate entry of the source.

Key:
[1] = system: rat stomachs; assay: Gastric pathology following inflammatory stress and indomethacin, fed rats (Example 20); type: in vivo, male Sprague Dawley rats; conditions: stress + indomethacin 30 mg/kg oral; Compound III 50 mg/kg subcutaneously where given; 24 hours
Description: (§1) Stress was induced by the following procedure. On day one, under ether anesthesia, 18 male Sprague Dawley rats were injected with a suspension of Zymosan A (1 mg/ml in normal saline; Sigma Chemical Co.) in each hind paw. Swelling developed and persisted. This treatment generated activated blood complement locally (including the C5a moiety), which then spread by the bloodstream throughout the animal.
(§2) Twenty-four hours later all rat paws were reinjected, this time with 0.1 ml of proinflammatory zymosan-activated rat serum containing additional amounts of inflammatory complement fragment C5a (as in Example 23, hereinafter). Five hours later 30 mg/kg indomethacin in an aqueous suspension was given to nine such rats by oral garage. These rats also received a subcutaneous injection of 0.1 ml normal saline. Nine other such rats were given indomethacin as above, and Compound III (50 mg/kg in normal saline subcutaneously). Four additional rats, not stressed (normal) were given water by garage as a placebo and saline subcutaneously. All rats were fed ad libitum on standard diet.
Twenty-four hours later all animals were sacrificed by ether euthanasia. Their stomachs were washed with saline and evaluated for ulcer-related pathology using an illuminated magnifying glass. This assay is similar to that reported by Kinney et al., J. Med. Chem., 33:327 (1990).

[2] = system: rat stomachs; assay: Gastric pathology following inflammatory stress and indomethacin, food-deprived rats (Example 21); type: in vivo
Description: as §1, §2
In contrast to the study of Example 20, above, in this study animals were food deprived for 24 hours before and also during the 24 hours following drug treatments. All animals were subjected to the inflammatory stress as described in Example 20. Eight such rats received 30 mg/kg indomethacin, and eight rats received indomethacin and Compound III (subcut., 50 mg/kg). Four rats, not stressed, were given placebo by garage.
All animals were sacrificed by ether euthanasia 24 hours later, and their stomachs evaluated for ulcer-related pathology.
In the stressed animals given indomethacin alone, pathology was much more severe than in Example 20. For scoring, therefore, the frequency of ulcers per rat stomach was quantified, and whether they were or were not bleeding.

[3] = system: stomach ulcers; assay: Gastric ulcers in rats with corona virus infection treated with indomethacin (Example 26); type: in vivo, rat; conditions: indomethacin 30 mg/kg oral; cimetidine 25 mg/kg s.c. or Compound III 17.5 mg/kg s.c. where given; P<0.02
Text: Corona virus is a non-lethal upper respiratory viral pathogen that not infrequently infects rat colonies. It is a type of rodent coryza or catarrh, the equivalent of a disease that falls somewhere between human influenza and a severe common cold. The animals of this study suffered from this condition, a circumstance which was evident by observation, and which was confirmed by virological diagnosis at the Biological Resources Laboratory of the University of Illinois at Chicago. Since stress is a common component of peptic ulcer development in both animals and man, it was concluded that this feature of the status of these experimental animals rendered them appropriate for an ulcer study.
In this study, animals were not food deprived and were divided into treatment groups such that 15 rats received 30 mg/kg indomethacin alone (in water by oral gavage), 14 rats received indomethacin plus an injection of 25 mg/kg cimetidine subcutaneously, and 7 rats received indomethacin plus subcutaneous injection of 17.5 mg/kg of Compound III.
All animals were sacrificed by ether euthanasia 24 hours later and their stomachs evaluated for ulcer pathology. In this study ulcers were not hemorrhagic. Results are shown below as the average number of stomach ulcers per stomach.

[4] = system: hind limbs; assay: Hind-foot mobility in established adjuvant arthritis (Example 27); type: in vivo, Lewis rats; conditions: Compound III 50 mg/kg oral where given
Text: Adjuvant arthritis was studied because it allows gaining of insight into effects of a drug in established and chronic inflammatory disease. Adjuvant arthritis shares certain features with rheumatoid arthritis but it is distinct. It is widely used in industry because it allows one to predict the potency of non-steroidal anti-inflammatory drugs (NSAID's) [Weichman, in Pharmaceutical Methods in the Control of Inflammation, Chang et al., eds.; Alan R. Liss, New York (1989) p. 362].
The rats used were of the Lewis strain, especially vulnerable to disease induction. Chronic polyarthritis was induced by the subcutaneous injection of complete Freund's adjuvant (CFA) into the rat tail. The CFA employed consists of 10 mg/ml heat-killed tubercle bacilli suspended in paraffin oil. An amount of 0.1 ml was injected, and the disease was allowed to develop over 14 days before daily assessments were made and treatments were initiated. Measurements that assess both increase in hind paw joint swelling and loss in hind limb function are taken.
Indomethacin was employed as a reference standard and given at 2 or 5 mg/kg. Treatment effects of Compound III, alone at 50 mg/kg given by oral gavage and in combination with indomethacin were assessed. Compound III was dissolved in water and indomethacin was suspended in water by homogenization. Both were administered sequentially by oral gavage.
Measurements by caliper include the lateral diameter of the ankle joint of each hind limb, and the dorsoventral diameter of the foot, just behind the toes. The prime measurement of function focusses on the fact that in many animals by day 14, and in most animals by day 16 after adjuvant administration, the arthritic rat can lose use of his hind limbs, which then are dragged behind him like logs. To quantify the recovery of function during treatment, a technique of Martel et al., Agents Actions, 15:403 (1984) was adapted. A blind assessment of the number of animals in each group that were able to draw their leg(s) under them and have these bear weight was carried out.

[5] = system: rat stomachs; assay: Gastric pathology following inflammatory stress and indomethacin, fed rats (Example 20); set-up: species or system male Sprague Dawley rats; conditions: in vivo
[6] = system: rat paw; conditions: in vivo; cited from earlier work
[7] = system: focal submucosal lesions; assay: Ethanol-induced gastric focal lesions (Example 33); type: in vivo, rat
Description: At three hours after ethanol administration, this drug continued to suppress ethanol-induced focal lesions (-57 percent).
A suspension of 25 mg/kg sucralfate+25 mg/kg Compound III:Al in combination was given as a pretreatment administration to another group in the same study. The combination produced an unanticipated augmentation of therapeutic effect against ethanol-induced focal submucosal lesions (-90 percent) at three hours post-ethanol administration. The same interactive phenomenon was also observed when Compound III was used, rather than Compound III:Al.

[8] = system: gastric mucosal ulcers; assay: Healing of established gastric ulcers induced by acetic acid (Example 34); type: in vivo, rat
Text: To evaluate drug effects on peptic ulcer healing, gastric mucosal ulcers were produced in rats, after a two day fast, by a modification of the method of Konturek et al., Am. J. Med., Vol. 86, 6A, 32 (1989). Briefly, to produce a mucosal ulcer, Konturek et al. applied 100 percent acetic acid for twenty seconds to the stomach serosa through a small cylindrical mold, 4.2 mm in diameter. The aim here was to make ulceration more severe than was achieved by the Konturek group so that spontaneous healing would not be as pronounced as they found in the controls, over an experimental period of seven days.
All drugs studied were suspended in 0.25 percent (by weight) aqueous methylcellulose solution as the vehicle or diluent, which also served as the placebo given to the controls. Treatments were given once daily by oral gavage, in one milliliter of vehicle. The treatment groups were: Control; Sucralfate at 200 mg/kg; and Compound III:Al at 200 mg/kg.
At the end of the treatment period, stomachs were removed, ulcer diameters were measured, and determination was made of the presence or absence of perforation.
A second study was carried out in which ulcer evolution was permitted to take place over five additional days, in the absence and presence of treatment with Sucralfate.
A third study was begun one day following the start of study 2, in which ulcer evolution was allowed to take place over five additional days, in the absence and presence of treatment with Compound III:Al.
In another study, after ulcer induction as above, a different dosage protocol was employed at 24 hours to evaluate the interaction of Compound III and orally administered sucralfate on ulcer healing. […] Here, daily drug doses of the following were used: (a) sucralfate at 200 mg/kg, alone and (b) in combination with 80 mg/kg Compound III given by mouth at -45 minutes, and, in a third group, (c) in combination with 10 mg/kg Compound III given IV also at -45 minutes. In this interaction study, drug treatment was continued for three and not five days, as was the case for the above studies, followed by passage of two additional non-treatment days before sacrifice of animals for evaluation of stomach ulcer area and perforation.
Data from all ulcer-healing studies employing a drug dosage of 200 mg/kg and the same ulcerogenesis protocol were pooled as to the frequency of gastric perforation observed on day five, not shown separately, with the day six perforation data shown above.

[9] = Solubility / dissolution in acid, water and 20 percent methanol; type: physicochemical; conditions: pH 1.2; Compound III:Al 2.5 mg/ml
[10] = system: focal submucosal lesions; assay: Ethanol-induced gastric focal lesions (Example 33); type: in vivo, rat; conditions: one hour post-ethanol, 50 mg/kg
[11] = Physicians' Desk Reference (1990); cited from earlier work
[12] = Dissolution and buffering of suspensions, HCl titration (Example 16)
Description: Note that the term "apparent pK" in this context is meant to encompass the maximization of buffering that come both from solid-state dissolution and its titration as solute.

[13] = three hours post-ethanol, 50 mg/kg, combination 25 + 25 mg/kg

For `COc1ccc2c(c1)c(CC(=O)O)c(C)n2C(=O)c1ccc(Cl)cc1` [Indomethacin], the “Mean Pathology score” value [1] was 1.43, the “Pathology score, individual rat” value [1] was 0.5 and 1.0 and 0.0 and 4.0 and 7.0 and the “bleeding ulcers in group” value ([2]; eight rats) was 22. For the same compound, the “total ulcers found in group” value ([2]; eight rats) was 23 ulcers, the “Bleeding Ulcer Frequency, Mn ± SE” value ([2]; indomethacin 30 mg/kg, Compound III 50 mg/kg subcut. where given, 24 hours, P<0.001 vs indomethacin alone) was 2.65 ± 0.063 Per Rat and the “Total Ulcer Frequency, n ± SE” value ([2]; indomethacin 30 mg/kg, Compound III 50 mg/kg subcut. where given, 24 hours, P<0.01 vs indomethacin alone) was 2.88 ± 0.67 Per Rat. For the same compound, the “ulcers per affected rat” value ([2]; indomethacin: all eight rats, indomethacin + Compound III: only two rats) was 1-5 ulcers, the “Ulcer Frequency per stomach, Mn ± SE” value [3] was 2.53 ± 0.52 Per Stomach and the “Total Immobility - Percent” value ([4]; Day 0, indomethacin 2 mg/kg/day) was 100%. For the same compound, the “Total Immobility - Percent” value ([4]; Day 0, indomethacin 5 mg/kg/day) was 100%, the “Total Immobility - Percent” value ([4]; Day 1, indomethacin 2 mg/kg/day, p < 0.02) was 67% and the “Total Immobility - Percent” value ([4]; Day 1, indomethacin 5 mg/kg/day, p < 0.01) was 70%. For the same compound, the “Total Immobility - Percent” value ([4]; Day 2, indomethacin 2 mg/kg/day, p < 0.01) was 44%, the “Total Immobility - Percent” value ([4]; Day 2, indomethacin 5 mg/kg/day) was 20% and the “Total Immobility - Percent” value ([4]; Day 3, indomethacin 2 mg/kg/day) was 44%. For the same compound, the “Total Immobility - Percent” value ([4]; Day 3, indomethacin 5 mg/kg/day, control 100 (12/12)) was 10%, the “ulceration by indomethacin without stress” value [5] was “induced no ulceration” and the “effect on edema that develops following removal of the tourniquet, in words” value [6] was “not effective at any time”.
In the case of “sucrose octakis-(hydrogen sulfate) aluminum complex [sucralfate, reference compound]”, the “effect on ethanol-produced gastric pathology, in words” value ([7]; pretreatment 50 mg/kg one hour before ethanol) is reported as “inhibited all focal submucosal lesions; also recorded: All large vessel vasodilation provoked by ethanol was also inhibited one hour after ethanol treatment; also recorded: at three hours all therapeutic effects of sucralfate on ethanol-produced gastric pathology were absent”, the “change in focal lesions versus control” value [7, 13] is reported as “+6%” and the “change in focal lesions versus control, study employing Compound III” value [7, 13] is reported as “+44%”. The “Focal Lesions per Stomach, study employing Compound III” value ([7]; three hours post-ethanol, 50 mg/kg, combination 25 + 25 mg/kg, control 2.25 ± 0.98) was 3.25 + 1.01 per Stomach, the “Focal Lesions per Stomach” value ([7]; three hours post-ethanol, 50 mg/kg, combination 25 + 25 mg/kg, n = 17, control 4.94 ± 1.41) was 5.24 ± 1.49 per Stomach and the “DRUG EFFECT on mean ulcer score” value ([8]; Day 6, 200 mg/kg oral) was -33%. The “Established ulcer score, individual animal (area in cm^2, + 2.0 for perforation)” value ([8]; Day 6, 200 mg/kg oral once daily, * = perforation, 200 mg/kg) was 2.96 and 5.75 and 3.0 and 1.0 and 0.96 and 3.5 and 1.5 and 0.1 and 1.05 and 0.4, the “MEAN SCORE, established ulcers” value ([8]; Day 6, 200 mg/kg oral, controls 3.03 ± 0.73 (sucralfate study, not significant), 4.12 ± 0.67 (Compound III:Al study, P < 0.001)) was 2.02 ± 0.55 and the “DRUG EFFECT on mean ulcer area” value ([8]; day six, 200 mg/kg oral) was -43%. The “Established ulcer area, MEAN” value ([8]; day six, 200 mg/kg oral, controls 2.14 ± 0.43 (sucralfate, P < 0.1), 2.32 ± 0.61 (Compound III:Al, P < 0.05)) was 1.22 ± 0.31 CM^2, the “Established ulcer area, MEAN (comparative treatments)” value ([8]; day six, three days treatment, sucralfate 200 mg/kg alone) was 2.11 ± 0.41 CM^2 and the “Perforation As Percent” value ([8]; pooled, 200 mg/kg, control 50, Compound III:Al P < 0.001 vs control and vs sucralfate) was 38%. For the same compound, the “Perforation Frequency” value ([8]; pooled, 200 mg/kg, days five and six, control 26/52) was 12/32, the “dissolution of suspension in acid” value [9] was “complete dissolution” and the “change in focal lesions versus control” value [10] was -100%. The “Focal Lesions per Stomach” value ([10]; n = 6, control 4.17 ± 1.58, p<0.05) was 0.00 per Stomach, the “absorption from the gastrointestinal tract” value [11] was “only minimally absorbed” and the “HCl needed to lower pH of suspension to below pH 2.00” value ([12]; 50 mg in 20 ml distilled water, initial pH 4.44 (aluminum trihydroxide), 4.91 (sucralfate), 4.23 (Compound III:Al), water alone 0.30) was 0.4 meq. For the same compound, the “buffering action, in words” value ([12]; HCl titration) was “only a minor buffering action between pH 1.73 and 1.47” and the “Relative Buffering Power between pH 4.5 and 2.0” value ([12]; sucralfate = 1) was 1.
